Experimental data from patent US20070203091A1, “Methods and therapeutic compositions for improving liver, blood flow and skeletal muscle functions in advanced diseases and aging” (priority 2006, published 2007).

Experiment: Cachexia markers Part I: serum albumin, pre-albumin, C-Reactive Protein, Phase I study; as to C-Reactive Protein, Change from Baseline, Mean: test concentration or dose not given here; as to C-Reactive Protein, Change from Baseline, Median: test concentration or dose not given here; as to C-Reactive Protein, Observed Values, Mean: test concentration or dose not given here; as to C-Reactive Protein, Observed Values, Median: test concentration or dose not given here; as to Pre-albumin, Change from Baseline, Mean: test concentration or dose not given here; as to Pre-albumin, Change from Baseline, Median: test concentration or dose not given here; as to Pre-albumin, Observed Values, Mean: test concentration or dose not given here
Assay type: in vivo, human
Settings: ITT
Source text: The data for albumin, LDH and Bilirubin support claims reciting improvement in liver function by claimed treatment of a human host in need thereof. Serum LDH levels are an established strong independent negative prognostic factor, inversely related to survival in a great variety of adverse clinical conditions. In advanced refractory cancers, high LDH and low Karnofsky's performance status are among the strongest established independent negative prognostic factors of survival and quality of life (29).

[1] = Week 1 (Infusion 1), baseline, N=15

Q: What does the source list for `Nc1ncnc2c1ncn2[C@@H]1O[C@H](COP(=O)(O)OP(=O)(O)OP(=O)(O)O)[C@@H](O)[C@H]1O` [ATP, adenosine 5′-triphosphate]?
A: C-Reactive Protein, Change from Baseline, Mean [1]: 0.0 mg/dL; C-Reactive Protein, Change from Baseline, Median [1]: 0.0 mg/dL; C-Reactive Protein, Observed Values, Mean [1]: 5.1 mg/dL; C-Reactive Protein, Observed Values, Median [1]: 3.4 mg/dL; Pre-albumin, Change from Baseline, Mean [1]: 0.0 mg/dL; Pre-albumin, Change from Baseline, Median [1]: 0.0 mg/dL; Pre-albumin, Observed Values, Mean [1]: 19.7 mg/dL; Pre-albumin, Observed Values, Median [1]: 18.0 mg/dL; Serum Albumin, Change from Baseline, Mean [1]: 0.0 g/dL; Serum Albumin, Change from Baseline, Median [1]: 0.0 g/dL; Serum Albumin, Observed Values, Mean [1]: 3.3 g/dL; Serum Albumin, Observed Values, Median [1]: 3.4 g/dL; Pre-albumin, Change from Baseline, Mean (Week 2 (Infusion 2), N=13): -1.2 mg/dL; Pre-albumin, Change from Baseline, Median (Week 2 (Infusion 2), N=13): 0.0 mg/dL; Pre-albumin, Observed Values, Mean (Week 2 (Infusion 2), N=13): 19.4 mg/dL; Pre-albumin, Observed Values, Median (Week 2 (Infusion 2), N=13): 17.0 mg/dL; C-Reactive Protein, Change from Baseline, Mean (Week 2 (Infusion 2), N=14): 0.1 mg/dL; C-Reactive Protein, Change from Baseline, Median (Week 2 (Infusion 2), N=14): 0.5 mg/dL; C-Reactive Protein, Observed Values, Mean (Week 2 (Infusion 2), N=14): 5.0 mg/dL; C-Reactive Protein, Observed Values, Median (Week 2 (Infusion 2), N=14): 3.3 mg/dL; Serum Albumin, Change from Baseline, Mean (Week 2 (Infusion 2), N=14): -0.1 g/dL; Serum Albumin, Change from Baseline, Median (Week 2 (Infusion 2), N=14): 0.0 g/dL; Serum Albumin, Observed Values, Mean (Week 2 (Infusion 2), N=14): 3.2 g/dL; Serum Albumin, Observed Values, Median (Week 2 (Infusion 2), N=14): 3.2 g/dL; C-Reactive Protein, Change from Baseline, Mean (Week 4 (Infusion 4), N=9): 2.5 mg/dL; C-Reactive Protein, Change from Baseline, Median (Week 4 (Infusion 4), N=9): 1.6 mg/dL; C-Reactive Protein, Observed Values, Mean (Week 4 (Infusion 4), N=9): 6.6 mg/dL; C-Reactive Protein, Observed Values, Median (Week 4 (Infusion 4), N=9): 6.1 mg/dL; Pre-albumin, Change from Baseline, Mean (Week 4 (Infusion 4), N=10): -1.3 mg/dL; Pre-albumin, Change from Baseline, Median (Week 4 (Infusion 4), N=10): 0.0 mg/dL; Pre-albumin, Observed Values, Mean (Week 4 (Infusion 4), N=10): 16.5 mg/dL; Pre-albumin, Observed Values, Median (Week 4 (Infusion 4), N=10): 17.0 mg/dL; Serum Albumin, Change from Baseline, Mean (Week 4 (Infusion 4), N=11): -0.2 g/dL; Serum Albumin, Change from Baseline, Median (Week 4 (Infusion 4), N=11): -0.2 g/dL; Serum Albumin, Observed Values, Mean (Week 4 (Infusion 4), N=11): 3.2 g/dL; Serum Albumin, Observed Values, Median (Week 4 (Infusion 4), N=11): 3.0 g/dL; C-Reactive Protein, Change from Baseline, Mean (Week 6 (Infusion 6), N=8): 0.2 mg/dL; C-Reactive Protein, Change from Baseline, Median (Week 6 (Infusion 6), N=8): 0.0 mg/dL; C-Reactive Protein, Observed Values, Mean (Week 6 (Infusion 6), N=8): 4.5 mg/dL; C-Reactive Protein, Observed Values, Median (Week 6 (Infusion 6), N=8): 2.5 mg/dL; Pre-albumin, Change from Baseline, Mean (Week 6 (Infusion 6), N=8): -7.5 mg/dL; Pre-albumin, Change from Baseline, Median (Week 6 (Infusion 6), N=8): -4.5 mg/dL; Pre-albumin, Observed Values, Mean (Week 6 (Infusion 6), N=8): 16.6 mg/dL; Pre-albumin, Observed Values, Median (Week 6 (Infusion 6), N=8): 16.0 mg/dL; Serum Albumin, Change from Baseline, Mean (Week 6 (Infusion 6), N=9): -0.1 g/dL; Serum Albumin, Change from Baseline, Median (Week 6 (Infusion 6), N=9): -0.2 g/dL; Serum Albumin, Observed Values, Mean (Week 6 (Infusion 6), N=9): 3.2 g/dL; Serum Albumin, Observed Values, Median (Week 6 (Infusion 6), N=9): 3.1 g/dL; C-Reactive Protein, Change from Baseline, Mean (Week 8 (Infusion 8), N=6): 3.7 mg/dL; C-Reactive Protein, Change from Baseline, Median (Week 8 (Infusion 8), N=6): 0.0 mg/dL; C-Reactive Protein, Observed Values, Mean (Week 8 (Infusion 8), N=6): 9.0 mg/dL; C-Reactive Protein, Observed Values, Median (Week 8 (Infusion 8), N=6): 4.7 mg/dL; Pre-albumin, Change from Baseline, Mean (Week 8 (Infusion 8), N=7): -6.3 mg/dL; Pre-albumin, Change from Baseline, Median (Week 8 (Infusion 8), N=7): -4.0 mg/dL; Pre-albumin, Observed Values, Mean (Week 8 (Infusion 8), N=7): 19.6 mg/dL; Pre-albumin, Observed Values, Median (Week 8 (Infusion 8), N=7): 19.0 mg/dL; Serum Albumin, Change from Baseline, Mean (Week 8 (Infusion 8), N=7): -0.1 g/dL; Serum Albumin, Change from Baseline, Median (Week 8 (Infusion 8), N=7): -0.1 g/dL
